Measured values: paper PMC5535166 (Toxins, 2017)

Target: T1, rShGST (recombinant Schistoma japonicum GST) (Schistosoma japonicum, UniProt P08515)
T1 construct: GST expressed from the empty vector pGEX-6P-1 (vector-encoded C-terminal linker), E. coli BL21(DE3), Glutathione Sepharose
Experiment: GST activity with CDNB, absorbance at […] nm
Type: biochemical
Conditions: 100 µM inhibitor; 1 mM CDNB, 1 mM GSH, 0.1 M phosphate pH 6.5

T1 sequence (P08515 2-218): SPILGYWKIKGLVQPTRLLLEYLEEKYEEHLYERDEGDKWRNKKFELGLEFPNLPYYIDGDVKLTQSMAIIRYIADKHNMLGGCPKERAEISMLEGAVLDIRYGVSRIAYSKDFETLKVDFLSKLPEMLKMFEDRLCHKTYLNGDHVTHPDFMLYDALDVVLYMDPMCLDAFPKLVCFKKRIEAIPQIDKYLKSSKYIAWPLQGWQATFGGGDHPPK

C=C(CC)C(=O)c1ccc(OCC(=O)O)c(Cl)c1Cl [ethacrynic acid]
GST activity, % of control at 100 μM: Ethacrynic acid strongly inhibited the GST activity of recombinant Schistoma japonicum GST (rShGST)
